Data as given in article PMC11725774 (Cancer Research Communications, 2025).
Read-outs that look alike come from different tables or passages of the source.

Columns and labels:
[1] = Tolerability in orthotopic AML models; format: in vivo; conditions: daily dosing at 30 mg/kg, all three orthotopic models
From the text: ; Fig. 3A). The increase in the MOLM-13 model was from 37 to 75 days (P < 0.0001; Fig. 3B) and in the MOLM-14 model, it was from 17 to 65 days (Fig. 3C).

MOLM-13 cells = assay: Growth inhibition of AML cell line; format: cell-based; conditions: Homo sapiens, mean ± SD
Method: (§1) MV-4-11 cells expressing NRAS^G12D were prepared by transduction with a lentiviral vector encoding the NRAS^G12D mutation. Assays using a panel of parental Ba/F3 into which an additional copy of either WT or a mutant form of FLT3 was introduced were performed at Kyinno Biotechnology Co., Ltd. All cell lines were short tandem repeat authenticated at ATCC or at DSMZ when originally obtained, and no further authentication was done after receipt of the cells in the laboratory.
(§2) Assays using Ba/F3 cells expressing WT and mutant forms of FLT3 were performed by Kyinno Biotechnology. The cells were cultured in the medium recommended by the source for each cell line. Growth inhibition assays were performed using either Cell Titer 96 Aqueous One Solution Cell Proliferation assay (Promega, # G3581) or CCK8 (Dojindo, # CK-04). […] IC50 values were determined from growth inhibition curves fitted using GraphPad Prism and a nonlinear regression model with sigmoidal dose response. Unless otherwise indicated, data are presented as mean ± SEM.

SYK = biological target: T1, SYK (Homo sapiens, UniProt P43405); assay: Broad kinase inhibition screen, recombinant kinase; format: biochemical; conditions: broad kinase inhibition screens
T1 construct: purchased Thermo Fisher Scientific or Reaction Biology, Inc. (screening service)
From the text: (§3) Data from these screens are available on request.

JAK1 = biological target: T2, JAK1 (Homo sapiens, UniProt P23458); assay: Broad kinase inhibition screen, recombinant kinase; format: biochemical; conditions: broad kinase inhibition screens
T2 construct: purchased Thermo Fisher Scientific or Reaction Biology, Inc. (screening service)
From the text: as §3

RSK-2 = biological target: T3, RSK-2 (Homo sapiens, UniProt P51812); assay: Broad kinase inhibition screen, recombinant kinase; format: biochemical; conditions: broad kinase inhibition screens
T3 construct: purchased Thermo Fisher Scientific or Reaction Biology, Inc. (screening service)
From the text: as §3

TAK1 = biological target: T4, TAK1 (Homo sapiens, UniProt O43318); assay: Broad kinase inhibition screen, recombinant kinase; format: biochemical; conditions: broad kinase inhibition screens
T4 construct: purchased Thermo Fisher Scientific or Reaction Biology, Inc. (screening service)
From the text: as §3

JAK2 = biological target: T5, JAK2 (Homo sapiens, UniProt O60674); assay: Broad kinase inhibition screen, recombinant kinase; format: biochemical; conditions: broad kinase inhibition screens
T5 construct: purchased Thermo Fisher Scientific or Reaction Biology, Inc. (screening service)
From the text: as §3

CYP2C9 = CYP2C9 (Homo sapiens, UniProt P11712); assay: CYP inhibition; format: in vitro ADME
[2] = test system: AML cell lines expressing FLT3 ITD (MV-4-11, MOLM-13, and MOLM-14); assay: Growth inhibition of AML cell lines; format: cell-based; conditions: Homo sapiens; range over MV-4-11, MOLM-13, MOLM-14
Method: as §1, with “MV-4-11 (CRL-9591), HS-5 (CRL-3611), and KG1a (CCL-246.1) cells were obtained from ATCC. MOLM-13 (ACC 554) and MOLM-14 (ACC 777) were obtained from DSMZ (Deutsche Sammlung von Mikroorganismen und Zellkulturen). MOLM-14 cells contain one WT FLT3 allele and one FLT3-ITD allele. MOLM-14 FLT3-ITD/F691 cells were prepared by transfection of MOLM-14 cells with a vector expressing the FLT3 TKD F691L mutation. MV-4-11” for “MV-4-11”
as §2, with “Unless otherwise indicated, data are presented as mean ± SEM.” left out

[3] = test system: p-JAK1, p-JAK2, p-STAT3, p-STAT5 in MOLM-14 cells cocultured with HS-5 cells; assay: HS-5 stromal coculture Western blot; format: cell-based, human; conditions: concentrations <1 μmol/L; MOLM-14 cocultured with HS-5
Method: Cells were treated as described in respective Results sections and then lysed with RIPA buffer. Western blot analyses were performed with antibodies capable of detecting both total and phosphorylated forms of each kinase purchased from commercial sources. Information on the antibodies used is provided in the Supplementary Materials section.
HS-5 cells were obtained from ATCC. The HS-5 stromal cells (5 × 10^5 cells/well) were seeded into six-well plates, and 24 hours later, MOLM-14 cells (1 × 10^6 cells/well) were seeded into the same plate and then cultured for 48 hours. Cultures were then exposed to test drugs for 2 hours, harvested, and lysates were prepared for Western blotting. For stimulation studies, MOLM-14 or KG-1a cells were seeded at 5.0 to 6.0 × 10^6 cells/well into six-well plates in 2 mL medium. Cells were stimulated with 500 μg/mL fibrinogen (Sigma-Aldrich, Catalog # F3879) for 1 hour at 37°C. Alternatively, they were treated with 10 μg/mL IgG (Invitrogen, Catalog # 31154) for 10 minutes on ice followed by IgG cross-linking with 1 μg/mL anti–human IgG antibody for 10 minutes on ice. After these incubations, the media were removed and the cells were washed with cold PBS, lysed, and analyzed by Western blotting.

Ba/F3 cells FLT3 ITD = assay: Growth inhibition of Ba/F3 cells; format: cell-based, murine; conditions: Mus musculus
Method: as §1, §2

Ba/F3 cells FLT3 D835Y = assay: Growth inhibition of Ba/F3 cells; format: cell-based, murine; conditions: Mus musculus
Method: as §1, §2

Ba/F3 cells FLT3 WT = assay: Growth inhibition of Ba/F3 cells; format: cell-based, murine
Method: as §1, §2

[4] = test system: Ba/F3 cells FLT3 ITD/F691L; assay: Growth inhibition of Ba/F3 cells; format: cell-based, murine; conditions: Mus musculus, BaF3
Method: as §1, §2

[5] = test system: Ba/F3 cells FLT3 ITD/D835Y; assay: Growth inhibition of Ba/F3 cells; format: cell-based, murine; conditions: Mus musculus, BaF3
Method: as §1, §2

[6] = test system: Ba/F3 cells expressing various mutant forms of FLT3; assay: Growth inhibition of Ba/F3 cells; format: cell-based, murine; conditions: Mus musculus, BaF3; Ba/F3, various mutant forms of FLT3, range
Method: as §1, with “MV-4-11 (CRL-9591), HS-5 (CRL-3611), and KG1a (CCL-246.1) cells were obtained from ATCC. MOLM-13 (ACC 554) and MOLM-14 (ACC 777) were obtained from DSMZ (Deutsche Sammlung von Mikroorganismen und Zellkulturen). MOLM-14 cells contain one WT FLT3 allele and one FLT3-ITD allele. MOLM-14 FLT3-ITD/F691 cells were prepared by transfection of MOLM-14 cells with a vector expressing the FLT3 TKD F691L mutation. MV-4-11” for “MV-4-11”
as §2, with “Unless otherwise indicated, data are presented as mean ± SEM.” left out

T3 sequence (P51812 whole entry): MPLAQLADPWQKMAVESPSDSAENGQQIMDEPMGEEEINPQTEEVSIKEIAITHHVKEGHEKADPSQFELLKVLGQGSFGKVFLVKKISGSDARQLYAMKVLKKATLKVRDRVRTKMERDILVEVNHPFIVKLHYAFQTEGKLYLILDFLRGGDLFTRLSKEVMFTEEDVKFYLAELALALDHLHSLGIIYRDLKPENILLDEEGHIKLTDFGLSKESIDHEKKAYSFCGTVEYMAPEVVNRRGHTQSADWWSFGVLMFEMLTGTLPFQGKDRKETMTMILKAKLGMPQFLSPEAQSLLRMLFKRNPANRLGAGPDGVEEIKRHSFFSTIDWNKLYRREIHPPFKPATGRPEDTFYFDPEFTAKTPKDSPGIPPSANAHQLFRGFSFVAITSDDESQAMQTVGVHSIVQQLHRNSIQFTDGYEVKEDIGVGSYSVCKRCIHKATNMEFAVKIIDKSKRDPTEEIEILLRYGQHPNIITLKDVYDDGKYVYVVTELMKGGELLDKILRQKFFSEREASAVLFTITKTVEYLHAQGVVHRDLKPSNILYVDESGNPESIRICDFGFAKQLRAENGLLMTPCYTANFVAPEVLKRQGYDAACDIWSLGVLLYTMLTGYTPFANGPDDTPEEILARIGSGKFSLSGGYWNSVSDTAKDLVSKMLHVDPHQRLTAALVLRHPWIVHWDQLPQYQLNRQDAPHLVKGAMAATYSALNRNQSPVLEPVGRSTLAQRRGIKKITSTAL
Sequence of CYP2C9 (P11712 whole entry): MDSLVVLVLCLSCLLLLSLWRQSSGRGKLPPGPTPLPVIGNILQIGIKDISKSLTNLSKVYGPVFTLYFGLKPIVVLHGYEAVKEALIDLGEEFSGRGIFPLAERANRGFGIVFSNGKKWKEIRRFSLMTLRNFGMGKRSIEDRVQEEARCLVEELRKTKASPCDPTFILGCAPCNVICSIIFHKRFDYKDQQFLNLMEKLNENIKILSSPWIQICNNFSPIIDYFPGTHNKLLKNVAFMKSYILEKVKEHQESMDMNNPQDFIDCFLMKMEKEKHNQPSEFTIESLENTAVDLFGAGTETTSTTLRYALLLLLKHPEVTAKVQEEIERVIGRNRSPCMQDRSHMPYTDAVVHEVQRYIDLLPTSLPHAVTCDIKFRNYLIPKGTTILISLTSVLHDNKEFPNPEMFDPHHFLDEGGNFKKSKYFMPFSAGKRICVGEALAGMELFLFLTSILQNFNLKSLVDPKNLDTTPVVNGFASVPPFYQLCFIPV
T5 sequence (O60674 whole entry): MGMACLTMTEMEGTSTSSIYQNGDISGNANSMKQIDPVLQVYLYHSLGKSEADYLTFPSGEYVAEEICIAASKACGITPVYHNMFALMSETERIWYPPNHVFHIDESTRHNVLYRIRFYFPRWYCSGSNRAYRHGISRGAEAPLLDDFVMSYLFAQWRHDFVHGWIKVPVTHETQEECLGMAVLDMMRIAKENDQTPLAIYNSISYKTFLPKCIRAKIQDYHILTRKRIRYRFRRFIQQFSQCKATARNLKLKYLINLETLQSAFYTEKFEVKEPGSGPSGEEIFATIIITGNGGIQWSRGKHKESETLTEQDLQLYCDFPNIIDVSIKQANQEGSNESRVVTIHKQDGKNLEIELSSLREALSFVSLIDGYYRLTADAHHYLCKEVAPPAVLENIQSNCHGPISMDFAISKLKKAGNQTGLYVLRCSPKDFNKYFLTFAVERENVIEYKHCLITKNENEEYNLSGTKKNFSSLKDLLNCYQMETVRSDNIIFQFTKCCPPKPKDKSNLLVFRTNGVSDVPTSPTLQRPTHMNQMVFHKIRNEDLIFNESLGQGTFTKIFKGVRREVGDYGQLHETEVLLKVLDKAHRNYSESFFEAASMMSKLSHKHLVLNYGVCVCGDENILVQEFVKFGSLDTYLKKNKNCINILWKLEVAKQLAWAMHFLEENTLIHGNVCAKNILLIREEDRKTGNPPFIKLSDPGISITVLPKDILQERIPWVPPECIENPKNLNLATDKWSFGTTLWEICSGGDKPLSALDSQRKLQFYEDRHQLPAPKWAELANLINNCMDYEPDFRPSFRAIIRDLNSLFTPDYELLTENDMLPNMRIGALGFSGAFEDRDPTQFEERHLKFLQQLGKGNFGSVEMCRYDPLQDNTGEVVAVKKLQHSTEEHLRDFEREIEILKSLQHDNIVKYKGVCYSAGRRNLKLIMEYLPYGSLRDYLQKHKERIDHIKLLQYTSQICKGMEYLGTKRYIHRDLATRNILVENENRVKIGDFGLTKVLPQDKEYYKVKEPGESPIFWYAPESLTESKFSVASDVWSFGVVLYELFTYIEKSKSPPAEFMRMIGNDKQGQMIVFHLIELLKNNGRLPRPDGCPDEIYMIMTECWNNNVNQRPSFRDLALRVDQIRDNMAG
T2 sequence (P23458 whole entry): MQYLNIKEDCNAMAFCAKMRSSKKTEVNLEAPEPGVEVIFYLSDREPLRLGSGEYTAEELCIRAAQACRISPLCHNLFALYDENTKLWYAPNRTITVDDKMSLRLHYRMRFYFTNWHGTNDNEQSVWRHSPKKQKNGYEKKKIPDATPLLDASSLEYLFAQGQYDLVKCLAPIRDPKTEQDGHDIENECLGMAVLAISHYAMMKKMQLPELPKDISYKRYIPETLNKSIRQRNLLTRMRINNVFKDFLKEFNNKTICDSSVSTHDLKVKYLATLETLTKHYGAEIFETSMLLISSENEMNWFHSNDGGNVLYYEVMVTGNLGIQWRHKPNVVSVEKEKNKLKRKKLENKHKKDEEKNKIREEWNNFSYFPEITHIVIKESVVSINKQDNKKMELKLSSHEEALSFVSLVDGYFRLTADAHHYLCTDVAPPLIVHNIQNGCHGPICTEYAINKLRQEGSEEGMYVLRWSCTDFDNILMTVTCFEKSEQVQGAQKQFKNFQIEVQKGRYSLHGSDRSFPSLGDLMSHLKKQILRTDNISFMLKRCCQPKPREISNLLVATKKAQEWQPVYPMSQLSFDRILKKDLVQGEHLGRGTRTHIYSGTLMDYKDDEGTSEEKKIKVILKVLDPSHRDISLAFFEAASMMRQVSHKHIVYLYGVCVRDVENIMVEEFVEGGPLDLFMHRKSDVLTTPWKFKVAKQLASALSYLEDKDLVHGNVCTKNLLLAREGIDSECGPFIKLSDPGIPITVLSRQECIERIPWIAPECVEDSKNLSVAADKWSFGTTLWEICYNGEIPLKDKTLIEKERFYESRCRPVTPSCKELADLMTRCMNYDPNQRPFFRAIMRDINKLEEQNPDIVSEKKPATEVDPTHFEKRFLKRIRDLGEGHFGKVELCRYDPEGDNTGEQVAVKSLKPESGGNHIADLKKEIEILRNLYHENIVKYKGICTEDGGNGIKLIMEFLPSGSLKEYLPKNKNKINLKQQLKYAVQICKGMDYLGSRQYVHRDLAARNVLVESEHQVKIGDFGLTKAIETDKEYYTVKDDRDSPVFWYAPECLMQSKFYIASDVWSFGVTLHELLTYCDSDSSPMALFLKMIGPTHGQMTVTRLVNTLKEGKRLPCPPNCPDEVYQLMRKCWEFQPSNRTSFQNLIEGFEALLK
T4 sequence (O43318 1-303 limits assumed): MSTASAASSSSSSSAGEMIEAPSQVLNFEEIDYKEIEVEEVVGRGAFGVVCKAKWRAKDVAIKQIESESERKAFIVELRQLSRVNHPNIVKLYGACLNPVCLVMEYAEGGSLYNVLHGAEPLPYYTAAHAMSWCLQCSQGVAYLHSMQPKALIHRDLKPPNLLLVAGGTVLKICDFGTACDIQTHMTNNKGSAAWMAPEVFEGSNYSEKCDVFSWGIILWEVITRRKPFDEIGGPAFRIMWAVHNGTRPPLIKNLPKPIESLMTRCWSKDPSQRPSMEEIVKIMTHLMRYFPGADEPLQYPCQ
T4 sequence (Q15750 437-504 partner limits assumed): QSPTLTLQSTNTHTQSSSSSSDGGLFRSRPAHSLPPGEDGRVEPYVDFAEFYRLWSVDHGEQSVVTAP

For `Cc1ccc2c(-c3nc(Nc4cc(CN5C[C@@H](C)N[C@@H](C)C5)cc(C5CC5)c4)ncc3Cl)c[nH]c2c1` [TUS, Tuspetinib], the “tolerability / weight loss” value [1] was “well tolerated in mice with no significant weight loss”, the GI50 (MOLM-13 cells) was 5.2 ± 0.9 nM and the IC50 (SYK) was 2.9 nM. It also gave an IC50 (JAK1) of 2.9 nM, an IC50 (RSK-2) of 9.7 nM and an IC50 (TAK1) of 7 nM. The IC50 (JAK2) was 6.3 nM, the Ki (CYP2C9) was < 1000 nM and the GI50 [2] was 1.3 to 5.2 nM. The “inhibition of p-JAK1, p-JAK2, p-STAT3, or p-STAT5” value [3] was “Neither TUS nor gilteritinib inhibited”, the GI50 (Ba/F3 cells FLT3 ITD; BaF3, Ba/F3 FLT3 ITD) was < 9.1 nM and the GI50 (Ba/F3 cells FLT3 ITD; BaF3, Ba/F3 FLT3 ITD, mean ± SD, read-out: GI50) was 2.5 ± 0.4 nM. For the same compound, the GI50 (Ba/F3 cells FLT3 D835Y; BaF3, Ba/F3 FLT3 D835Y) was < 9.1 nM, the GI50 (Ba/F3 cells FLT3 D835Y; BaF3, Ba/F3 FLT3 D835Y, mean ± SD, read-out: GI50) was 7.3 ± 3.5 nM and the GI50 (Ba/F3 cells FLT3 WT; Ba/F3 FLT3 WT) was < 9.1 nM. It also gave a GI50 (Ba/F3 cells FLT3 WT; Mus musculus, BaF3, Ba/F3 FLT3 WT, read-out: GI50) of 9.1 nM, a GI50 [4] of 56 nM and a GI50 [5] of 16 nM. The GI50 [6] was 2.5 to 56 nM.
